Columns and labels:
Experiment in all cases: Test C rice paddy
BARNYARDGRASS = assay type: in vivo, Echinochloa crusgalli; conditions: Echinochloa crus-galli, 504 h, 21 days, read-out: plant response
Source text: (§1) Sixteen cm diameter Airlite plastic pots were partially filled with Tama slit loam soil and the soil saturated with water. Japonica and Indica rice seedlings a the 2.0 to 2.5 leaf stage were transplanted into 1/3 of the pots. Into another third of the pots were transplanted seedling or sprouted tubers of water plantain (Alisma trivale), Scripus (Scirpus paludosus), Cyperus (Cyperus esculentus), and arrowhead (Sagittaria spp.). The remaining pots were planted with barnyardgrass (Echinochloa crusgalli) seeds and sprouted tubes of water chestnut (Eleocharis spp.). These weeds all represent major rice weeds or genera of weeds important in rice. Three to four days after planting, the water level was raised to 3 cm (about 1200 ml/pot) and maintained a this level throughout the test. Chemical treatments were applied directly to the paddy water, within 24 hours of raising the water, after being formulated in a nonphytotoxic solvent. The pots were maintained in the greenhouse.

WATERCHESTNUT = assay type: in vivo, Eleocharis spp.; conditions: Eleocharis, 504 h, 21 days, read-out: plant response
Source text: as §1

ARROWHEAD = assay type: in vivo, Sagittaria spp.; conditions: Sagittaria, 504 h, 21 days, read-out: plant response
Source text: as §1

SCIRPUS = assay type: in vivo, Scirpus paludosus; conditions: Bolboschoenus maritimus, 504 h, 21 days, read-out: plant response
Source text: as §1

WATER PLAINTAIN = assay type: in vivo, Alisma trivale; conditions: 504 h, 21 days, read-out: plant response
Source text: as §1

RICE JAP EFF = assay type: in vivo, Japonica rice; conditions: Oryza sativa, 504 h, 21 days, read-out: plant response
Source text: as §1

RICE INDICA EFF = assay type: in vivo; conditions: Oryza sativa, 504 h, 21 days, read-out: plant response
Source text: as §1

**Q.** How did the pest or weed control at 64 g/ha (BARNYARDGRASS; 0064 G/HA) turn out when C=C(c1cccc(F)c1)C(O)(Cn1cncn1)c1ccc(F)cc1F (centres unmarked) [Example 18] was run?
**A.** The pest or weed control at 64 g/ha was 0%.

**Q.** And the pest or weed control at 125 g/ha (BARNYARDGRASS; 0125 G/HA)?
**A.** Its pest or weed control at 125 g/ha is 0%.

**Q.** What about the pest or weed control at 250 g/ha (BARNYARDGRASS; 0250 G/HA) of the same compound?
**A.** Its pest or weed control at 250 g/ha is 0%.

**Q.** And the pest or weed control at 500 g/ha (BARNYARDGRASS; 0500 G/HA)?
**A.** The pest or weed control at 500 g/ha was 40%.

**Q.** What about the pest or weed control at 1000 g/ha (BARNYARDGRASS; 1000 G/HA) of the same compound?
**A.** The pest or weed control at 1000 g/ha was 60%.

**Q.** And the pest or weed control at 64 g/ha (WATERCHESTNUT; 0064 G/HA)?
**A.** Its pest or weed control at 64 g/ha is 0%.

**Q.** What about the pest or weed control at 125 g/ha (WATERCHESTNUT; 0125 G/HA) of the same compound?
**A.** Its pest or weed control at 125 g/ha is 0%.

**Q.** What about the pest or weed control at 250 g/ha (WATERCHESTNUT; 0250 G/HA) of the same compound?
**A.** Its pest or weed control at 250 g/ha is 0%.

**Q.** And the pest or weed control at 500 g/ha (WATERCHESTNUT; 0500 G/HA)?
**A.** Its pest or weed control at 500 g/ha is 40%.

**Q.** And the pest or weed control at 1000 g/ha (WATERCHESTNUT; 1000 G/HA)?
**A.** The pest or weed control at 1000 g/ha was 50%.

**Q.** What about the pest or weed control at 64 g/ha (ARROWHEAD; 0064 G/HA) of the same compound?
**A.** The pest or weed control at 64 g/ha was 0%.

**Q.** And the pest or weed control at 125 g/ha (ARROWHEAD; 0125 G/HA)?
**A.** Its pest or weed control at 125 g/ha is 0%.

**Q.** What about the pest or weed control at 250 g/ha (ARROWHEAD; 0250 G/HA) of the same compound?
**A.** The pest or weed control at 250 g/ha was 0%.

**Q.** What about the pest or weed control at 500 g/ha (ARROWHEAD; 0500 G/HA) of the same compound?
**A.** Its pest or weed control at 500 g/ha is 20%.

**Q.** And the pest or weed control at 1000 g/ha (ARROWHEAD; 1000 G/HA)?
**A.** Its pest or weed control at 1000 g/ha is 35%.

**Q.** What about the pest or weed control at 64 g/ha (SCIRPUS; 0064 G/HA) of the same compound?
**A.** The pest or weed control at 64 g/ha was 0%.

**Q.** And the pest or weed control at 125 g/ha (SCIRPUS; 0125 G/HA)?
**A.** Its pest or weed control at 125 g/ha is 0%.

**Q.** And the pest or weed control at 250 g/ha (SCIRPUS; 0250 G/HA)?
**A.** The pest or weed control at 250 g/ha was 0%.

**Q.** And the pest or weed control at 500 g/ha (SCIRPUS; 0500 G/HA)?
**A.** The pest or weed control at 500 g/ha was 0%.

**Q.** What about the pest or weed control at 1000 g/ha (SCIRPUS; 1000 G/HA) of the same compound?
**A.** The pest or weed control at 1000 g/ha was 0%.

**Q.** And the pest or weed control at 64 g/ha (WATER PLAINTAIN; 0064 G/HA)?
**A.** The pest or weed control at 64 g/ha was 0%.

**Q.** And the pest or weed control at 125 g/ha (WATER PLAINTAIN; 0125 G/HA)?
**A.** Its pest or weed control at 125 g/ha is 0%.

**Q.** And the pest or weed control at 250 g/ha (WATER PLAINTAIN; 0250 G/HA)?
**A.** The pest or weed control at 250 g/ha was 0%.

**Q.** What about the pest or weed control at 500 g/ha (WATER PLAINTAIN; 0500 G/HA) of the same compound?
**A.** Its pest or weed control at 500 g/ha is 20%.

**Q.** What about the pest or weed control at 1000 g/ha (WATER PLAINTAIN; 1000 G/HA) of the same compound?
**A.** Its pest or weed control at 1000 g/ha is 40%.

**Q.** What about the pest or weed control at 64 g/ha (RICE JAP EFF; 0064 G/HA) of the same compound?
**A.** Its pest or weed control at 64 g/ha is 0%.

**Q.** What about the pest or weed control at 125 g/ha (RICE JAP EFF; 0125 G/HA) of the same compound?
**A.** Its pest or weed control at 125 g/ha is 0%.

**Q.** What about the pest or weed control at 250 g/ha (RICE JAP EFF; 0250 G/HA) of the same compound?
**A.** The pest or weed control at 250 g/ha was 0%.

**Q.** What about the pest or weed control at 500 g/ha (RICE JAP EFF; 0500 G/HA) of the same compound?
**A.** The pest or weed control at 500 g/ha was 50%.

**Q.** And the pest or weed control at 1000 g/ha (RICE JAP EFF; 1000 G/HA)?
**A.** Its pest or weed control at 1000 g/ha is 70%.

**Q.** And the pest or weed control at 64 g/ha (RICE INDICA EFF; 0064 G/HA)?
**A.** The pest or weed control at 64 g/ha was 0%.

**Q.** And the pest or weed control at 125 g/ha (RICE INDICA EFF; 0125 G/HA)?
**A.** The pest or weed control at 125 g/ha was 0%.

**Q.** What about the pest or weed control at 250 g/ha (RICE INDICA EFF; 0250 G/HA) of the same compound?
**A.** The pest or weed control at 250 g/ha was 0%.

**Q.** And the pest or weed control at 500 g/ha (RICE INDICA EFF; 0500 G/HA)?
**A.** The pest or weed control at 500 g/ha was 30%.

**Q.** And the pest or weed control at 1000 g/ha (RICE INDICA EFF; 1000 G/HA)?
**A.** Its pest or weed control at 1000 g/ha is 50%.
